Test results taken from ChEMBL document CHEMBL1201862, “PubChem BioAssay data set” (2004).
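Five concentrations, 48 hours, 96-well plates. GI50 is the concentration that inhibits growth by half.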 Activity calls are given as the source filed them. Cut-off read from the data, not from the text of the source: active = GI50 up to about 1.1 µM and inactive = higher.

What was measured:
Test in all cases: DTP human tumour cell line panel, 48 h
[1] = tested on: NCI-H226
[2] = tested on: SR
[3] = tested on: MDA-MB-231
[4] = tested on: MCF7
[5] = tested on: HL-60
[6] = tested on: COLO 205
[7] = tested on: SNB-19
[8] = tested on: DU-145
[9] = tested on: OVCAR-5
[10] = tested on: OVCAR-4
[11] = tested on: SK-OV-3
[12] = tested on: A498
[13] = tested on: U-251
[14] = tested on: HCC 2998
[15] = tested on: PC-3
[16] = tested on: MDA-N
[17] = tested on: M14
[18] = tested on: UO-31
[19] = tested on: SF-539
[20] = tested on: EKVX

| Compound | GI50 [1] | GI50 [2] | GI50 [3] | GI50 [4] | GI50 [5] | GI50 [6] | GI50 [7] | GI50 [8] | GI50 [9] | GI50 [10] | GI50 [11] | GI50 [12] | GI50 [13] | GI50 [14] | GI50 [15] | GI50 [16] | GI50 [17] | GI50 [18] | GI50 [19] | GI50 [20] |
| --- | --- | --- | --- | --- | --- | --- | --- | --- | --- | --- | --- | --- | --- | --- | --- | --- | --- | --- | --- | --- |
| CN(C)CCC(=O)N1C/C(=C/c2ccccc2)C(=O)/C(=C\c2ccccc2)C1 | 5.55 µM (inactive) | 0.386 µM (active) | 0.735 µM (active) | 0.349 µM (active) | 0.356 µM (active) | 2.24 µM (inactive) | 2.48 µM (inactive) | 6.79 µM (inactive) | 2.6 µM (inactive) | 2.17 µM (inactive) | 6.25 µM (inactive) | 3.12 µM (inactive) | 0.662 µM (active) | 1.06 µM (active) | 1.54 µM (inactive) | 1.14 µM (inactive) | 1.91 µM (inactive) | 2.36 µM (inactive) | 3.91 µM (inactive) | 3.78 µM (inactive) |
| NC1CCC(c2cc3ccccc3s2)(N2CCCCC2)CC1 (stereo not given) | 24.1 µM (inactive) | 1.54 µM (inactive) | 3.35 µM (inactive) | 1.68 µM (inactive) | 1.85 µM (inactive) | 1.58 µM (inactive) | 12.5 µM (inactive) | 4.67 µM (inactive) | 1.48 µM (inactive) | 3.33 µM (inactive) | 10.6 µM (inactive) | 9.29 µM (inactive) | 1.53 µM (inactive) | 1.04 µM (active) | 1.55 µM (inactive) | 1.74 µM (inactive) | 1.54 µM (inactive) | 2.31 µM (inactive) | 2.06 µM (inactive) | 1.41 µM (inactive) |
| N=C1C(=N)c2ccccc2-c2ccccc21 | 1.82 µM (inactive) | 0.695 µM (active) | 0.313 µM (active) | 0.792 µM (active) | 0.194 µM (active) | 1.73 µM (inactive) | 1.53 µM (inactive) | 1.49 µM (inactive) | 2 µM (inactive) | 1.45 µM (inactive) | 1.7 µM (inactive) | 2.24 µM (inactive) | 1.07 µM (active) | 1.96 µM (inactive) | 1.52 µM (inactive) | 0.177 µM (active) | 1.05 µM (active) | 1.61 µM (inactive) | 0.787 µM (active) | 1.9 µM (inactive) |
| N#CC(c1ccccc1)N(CCc1ccccc1)C(=O)Oc1ccccc1 (stereo not given) | 34.1 µM (inactive) | > 100 µM (inactive) | > 100 µM (inactive) | > 100 µM (inactive) | > 100 µM (inactive) | > 100 µM (inactive) | 53 µM (inactive) | > 100 µM (inactive) | > 100 µM (inactive) | > 100 µM (inactive) | > 100 µM (inactive) | > 100 µM (inactive) | > 100 µM (inactive) | > 100 µM (inactive) | > 100 µM (inactive) | > 100 µM (inactive) | > 100 µM (inactive) | > 100 µM (inactive) | > 100 µM (inactive) | > 100 µM (inactive) |
| O=C1CSC(=S)N1/N=C/c1ccc(Cl)c([N+](=O)[O-])c1 | 36.4 µM (inactive) | 22.5 µM (inactive) | 21.3 µM (inactive) | 13.3 µM (inactive) | 24.2 µM (inactive) | 43.7 µM (inactive) | 22.9 µM (inactive) | 36.6 µM (inactive) | > 100 µM (inactive) | 22.5 µM (inactive) | 36.6 µM (inactive) | 61 µM (inactive) | 18.5 µM (inactive) | 11.9 µM (inactive) | 24.6 µM (inactive) | 22.4 µM (inactive) | 18.8 µM (inactive) | 27.6 µM (inactive) | 32.8 µM (inactive) | 27.9 µM (inactive) |
